Assay results reported in patent US10738057B2, “Tertiary alcohols as PI3K-γ inhibitors” (Incyte Corporation, priority 2017, dated 2020).
Where a name gives a salt, the structure may show the parent alone. Read-outs that look alike come from different tables or passages of the source.

Experiments:
[1] = molecular target: PI3Kδ (p110δ/p85α) Recombinant Human Protein (Homo sapiens (Human), UniProt O00329); experiment: PI3Kδ scintillation proximity assay; format: biochemical; details: 20 μM PIP2, 2 μM ATP, 3.4 nM PI3Kδ, 120 min, room temperature
Chain of PI3Kδ (p110δ/p85α) Recombinant Human Protein (O00329 whole entry): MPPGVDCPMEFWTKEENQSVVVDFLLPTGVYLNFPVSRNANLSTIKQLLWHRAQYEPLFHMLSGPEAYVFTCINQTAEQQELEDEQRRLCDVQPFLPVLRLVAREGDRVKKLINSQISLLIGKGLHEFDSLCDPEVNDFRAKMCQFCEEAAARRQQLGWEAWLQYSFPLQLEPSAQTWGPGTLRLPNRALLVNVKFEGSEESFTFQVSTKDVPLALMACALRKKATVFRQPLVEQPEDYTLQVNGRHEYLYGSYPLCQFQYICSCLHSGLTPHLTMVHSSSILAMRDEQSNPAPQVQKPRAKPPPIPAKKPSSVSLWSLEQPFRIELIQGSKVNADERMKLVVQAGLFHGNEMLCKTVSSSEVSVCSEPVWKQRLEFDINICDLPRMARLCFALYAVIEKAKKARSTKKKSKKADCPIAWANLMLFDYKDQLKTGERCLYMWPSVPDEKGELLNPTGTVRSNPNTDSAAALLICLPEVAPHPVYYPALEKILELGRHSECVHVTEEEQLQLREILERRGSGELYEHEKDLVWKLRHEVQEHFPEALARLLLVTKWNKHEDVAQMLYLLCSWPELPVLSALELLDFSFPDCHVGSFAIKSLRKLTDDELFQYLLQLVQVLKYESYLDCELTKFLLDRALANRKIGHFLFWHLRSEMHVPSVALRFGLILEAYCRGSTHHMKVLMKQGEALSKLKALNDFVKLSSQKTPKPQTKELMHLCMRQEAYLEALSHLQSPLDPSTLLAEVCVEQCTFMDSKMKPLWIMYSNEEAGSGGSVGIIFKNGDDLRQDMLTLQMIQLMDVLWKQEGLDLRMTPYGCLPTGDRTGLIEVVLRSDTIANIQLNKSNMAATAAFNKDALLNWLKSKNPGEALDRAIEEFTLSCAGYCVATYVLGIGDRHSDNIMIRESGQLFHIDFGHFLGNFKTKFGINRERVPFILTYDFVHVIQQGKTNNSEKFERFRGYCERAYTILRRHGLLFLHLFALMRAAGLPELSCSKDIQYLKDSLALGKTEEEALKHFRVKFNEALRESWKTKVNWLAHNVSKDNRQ
Chain of PI3Kδ (p110δ/p85α) Recombinant Human Protein (P27986 whole entry partner): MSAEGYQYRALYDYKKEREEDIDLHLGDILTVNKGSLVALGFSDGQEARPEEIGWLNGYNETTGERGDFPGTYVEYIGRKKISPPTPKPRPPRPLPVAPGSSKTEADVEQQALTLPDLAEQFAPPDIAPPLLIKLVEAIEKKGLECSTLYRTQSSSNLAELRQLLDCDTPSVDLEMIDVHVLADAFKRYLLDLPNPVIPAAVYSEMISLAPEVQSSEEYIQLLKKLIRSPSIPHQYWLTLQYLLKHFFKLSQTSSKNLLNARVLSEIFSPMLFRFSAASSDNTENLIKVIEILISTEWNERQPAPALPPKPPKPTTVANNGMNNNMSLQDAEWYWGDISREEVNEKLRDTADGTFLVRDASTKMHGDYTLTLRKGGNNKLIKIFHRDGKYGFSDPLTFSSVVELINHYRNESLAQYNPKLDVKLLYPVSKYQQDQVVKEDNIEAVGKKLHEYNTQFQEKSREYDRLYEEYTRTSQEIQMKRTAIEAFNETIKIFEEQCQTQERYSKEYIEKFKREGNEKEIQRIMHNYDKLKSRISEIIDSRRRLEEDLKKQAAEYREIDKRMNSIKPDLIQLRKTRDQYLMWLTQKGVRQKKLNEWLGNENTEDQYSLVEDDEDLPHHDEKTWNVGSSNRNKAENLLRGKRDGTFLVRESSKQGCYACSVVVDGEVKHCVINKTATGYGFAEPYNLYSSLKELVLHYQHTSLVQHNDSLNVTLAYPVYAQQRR
Method in brief: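 Recombinant human p110δ/p85α was run at room temperature in 20 mM MOPS pH 6.7, 10 mM MgCl2, 5 mM DTT, 0.03% CHAPS, 2% DMSO. Substrates were 20 µM PIP2 and 2 µM ATP with [γ-33P]ATP. Product was captured overnight on WGA SPA beads and counted by scintillation; IC50 fitted from percent of solvent control versus log concentration.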

[2] = molecular target: PI3Kγ (p110γ) Recombinant Human Protein (Homo sapiens (Human), UniProt P48736); experiment: PI3K-γ scintillation proximity assay; format: biochemical; details: 20 μM PIP2, 2 μM ATP, 13 nM PI3Kγ, 120 min, room temperature
Chain of PI3Kγ (p110γ) Recombinant Human Protein (P48736 whole entry): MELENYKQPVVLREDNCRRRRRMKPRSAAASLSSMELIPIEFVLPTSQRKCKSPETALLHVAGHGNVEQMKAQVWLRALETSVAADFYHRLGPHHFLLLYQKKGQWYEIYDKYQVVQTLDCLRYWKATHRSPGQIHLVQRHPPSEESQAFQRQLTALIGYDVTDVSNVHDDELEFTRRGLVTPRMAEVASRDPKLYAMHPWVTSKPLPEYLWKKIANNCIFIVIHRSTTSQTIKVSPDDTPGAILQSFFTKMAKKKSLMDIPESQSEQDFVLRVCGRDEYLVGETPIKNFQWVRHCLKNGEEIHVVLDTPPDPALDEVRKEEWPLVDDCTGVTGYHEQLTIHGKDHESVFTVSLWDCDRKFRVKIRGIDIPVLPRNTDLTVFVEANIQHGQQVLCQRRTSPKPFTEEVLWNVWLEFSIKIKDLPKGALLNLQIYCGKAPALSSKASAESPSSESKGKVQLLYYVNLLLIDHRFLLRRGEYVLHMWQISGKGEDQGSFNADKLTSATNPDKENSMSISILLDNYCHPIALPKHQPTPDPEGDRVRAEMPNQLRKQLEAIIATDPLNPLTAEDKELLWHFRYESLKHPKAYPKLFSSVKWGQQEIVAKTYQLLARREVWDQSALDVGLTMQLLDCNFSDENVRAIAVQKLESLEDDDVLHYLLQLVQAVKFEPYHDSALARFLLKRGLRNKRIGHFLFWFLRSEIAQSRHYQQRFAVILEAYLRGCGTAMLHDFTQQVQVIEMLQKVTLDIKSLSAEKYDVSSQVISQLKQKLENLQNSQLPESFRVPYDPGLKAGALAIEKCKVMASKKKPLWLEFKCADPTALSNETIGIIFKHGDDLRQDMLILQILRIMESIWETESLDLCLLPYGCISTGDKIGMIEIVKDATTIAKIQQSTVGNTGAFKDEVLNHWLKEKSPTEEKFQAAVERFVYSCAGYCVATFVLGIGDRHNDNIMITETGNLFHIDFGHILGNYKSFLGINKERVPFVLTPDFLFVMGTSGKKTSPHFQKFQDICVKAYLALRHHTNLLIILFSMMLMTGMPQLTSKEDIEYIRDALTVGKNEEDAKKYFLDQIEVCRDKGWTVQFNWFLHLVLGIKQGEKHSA
Method in brief: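 Radiometric SPA in 20 mM MOPS pH 6.7, 10 mM MgCl2, 5 mM DTT, 0.03% CHAPS, 2% DMSO. Stopped with EDTA and WGA SPA beads for scintillation counting. IC50 fitted from % solvent-control activity versus log concentration.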

[3] = system: Phosphorylated Ribosomal Protein S6 (RPS6) in THP-1 cells; experiment: THP-1 RPS6 ELISA assay; format: cell-based, Human; details: Homo sapiens, THP-1, THP-1 cells, serum starved, 2 h compound, 10 nM MCP-1 for 15 min, phospho-RPS6 ELISA; read-out: PI3Kγ_THP1_RPS6_ELISA IC50
Method in brief: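 Phospho-RPS6 in lysates measured by ELISA at 450 nm, corrected at 540 nm, after MCP-1 challenge (10 nM, 15 min) of THP-1 cells that were starved overnight and exposed to test compound for 2 h at 37° C, 2×10^5 cells/well. Curve fit of percent inhibition gives IC50.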

Compound | IC50 ([1]; read-out: PI3Kδ IC50) [nM] | IC50 [2] [nM] | IC50 [3] [nM] | IC50 ([1]; PI3Kδ IC50 (nM)) [nM]
Cc1ccc(C(O)(c2nnnn2C)C(F)(F)F)cc1-c1cnc2c(N)nc(C(F)(F)F)cn12 (stereo not drawn) [Example 13, 1-(3-(8-Amino-6-(trifluoromethyl)imidazo[1,2-a]pyrazin-3-yl)-4-methylphenyl)-2,2,2-trifluoro-1-(1-methyl-1H-tetrazol-5-yl)ethan-1-ol trifluoroacetate] | 100 to 500 | < 100 | 100 to 500 | 
CNCCC(O)(c1ccc(C)c(-c2cnc3c(N)nc(C(F)(F)F)cn23)c1)C(F)(F)F (stereo not drawn) [Example 14, 2-(3-(8-Amino-6-(trifluoromethyl)imidazo[1,2-a]pyrazin-3-yl)-4-methylphenyl)-1,1,1-trifluoro-4-(methylamino)butan-2-ol bis(2,2,2-trifluoroacetate)] |  | < 100 | < 100 | 100 to 500
Cc1ccc(C(O)(CCO)C(F)(F)F)cc1-c1cnc2c(N)nc(C(F)(F)F)cn12 (stereo not drawn) [Example 18, 3-(3-(8-Amino-6-(trifluoromethyl)imidazo[1,2-a]pyrazin-3-yl)-4-methylphenyl)-4,4,4-trifluorobutane-1,3-diol] | 100 to 500 | < 100 | 100 to 500 | 
Cc1ccc(C(O)(C2CC2)C(F)(F)F)cc1-c1cnc2c(N)nc(C(F)(F)F)cn12 (stereo not drawn) [Example 19, 1-(3-(8-Amino-6-(trifluoromethyl)imidazo[1,2-a]pyrazin-3-yl)-4-methylphenyl)-1-cyclopropyl-2,2,2-trifluoroethan-1-ol] | 100 to 500 | < 100 | > 1000 | 
Cc1ccc(C(C)(O)C(F)(F)F)cc1-c1cnc2c(N)nc(-c3cnc(C4CC4)s3)cn12 (stereo not drawn) [Example 20, 2-(3-(8-Amino-6-(2-cyclopropylthiazol-5-yl)imidazo[1,2-a]pyrazin-3-yl)-4-methylphenyl)-1,1,1-trifluoropropan-2-ol, TFA] | < 100 | < 100 | 100 to 500 | 
COc1cnc(-c2cn3c(-c4cc(C(C)(O)C(F)(F)F)ccc4C)cnc3c(N)n2)s1 (stereo not drawn) [Example 21, 2-(3-(8-Amino-6-(5-methoxythiazol-2-yl)imidazo[1,2-a]pyrazin-3-yl)-4-methylphenyl)-1,1,1-trifluoropropan-2-ol, TFA] | < 100 | < 100 | 100 to 500 | 
Cc1cc(CNC(=O)c2cn3c(-c4cc(C(C)(O)C(F)(F)F)ccc4C)cnc3c(N)n2)on1 (stereo not drawn) [Example 22, 8-Amino-3-(2-methyl-5-(1,1,1-trifluoro-2-hydroxypropan-2-yl)phenyl)-N-((3-methylisoxazol-5-yl)methyl)imidazo[1,2-a]pyrazine-6-carboxamide, TFA] | < 100 | < 100 | 100 to 500 | 
Cc1ccc(C(O)C(F)(F)F)cc1-c1cnc2c(N)nc(C(F)(F)F)cn12 (stereo not drawn) [Example 23, 1-(3-(8-Amino-6-(trifluoromethyl)imidazo[1,2-a]pyrazin-3-yl)-4-methylphenyl)-2,2,2-trifluoroethan-1-ol trifluoroacetate salt] | 500 to 2000 | < 100 | 500 to 1000 | 
Cc1ncc(-c2cn3c(-c4cc(C(C)(O)C(F)F)ccc4C)cnc3c(N)n2)o1 (stereo not drawn) [Example 28, 2-(3-(8-Amino-6-(2-methyloxazol-5-yl)imidazo[1,2-a]pyrazin-3-yl)-4-methylphenyl)-1,1-difluoropropan-2-ol] | < 100 | < 100 | 100 to 500 | 
Cc1ccc(C(C)(O)C(F)F)cc1-c1cnc2c(N)nc(-c3cc(C(N)=O)ccc3F)cn12 (stereo not drawn) [Example 31, 3-(8-Amino-3-(5-(1,1-difluoro-2-hydroxypropan-2-yl)-2-methylphenyl)imidazo[1,2-a]pyrazin-6-yl)-4-fluorobenzamide] | 100 to 500 | < 100 | 100 to 500 | 
COc1ncccc1-c1cn2c(-c3cc(C(C)(O)C(F)F)ccc3C)cnc2c(N)n1 (stereo not drawn) [Example 33, 2-(3-(8-Amino-6-(2-methoxypyridin-3-yl)imidazo[1,2-a]pyrazin-3-yl)-4-methylphenyl)-1,1-difluoropropan-2-ol] | 100 to 500 | < 100 | < 100 | 

Further lines, with some results ahead:

IC50 ([1]; read-out: PI3Kδ IC50) [nM] | IC50 [2] [nM] | IC50 [3] [nM] | Compound | IC50 ([1]; PI3Kδ IC50 (nM)) [nM]
< 100 | < 100 | 100 to 500 | Cc1ncc(-c2cn3c(-c4cc(C(C)(O)C(F)F)ccc4C)cnc3c(N)n2)s1 (stereo not drawn) [Example 34, 2-(3-(8-Amino-6-(2-methylthiazol-5-yl)imidazo[1,2-a]pyrazin-3-yl)-4-methylphenyl)-1,1-difluoropropan-2-ol] | 
< 100 | < 100 | < 100 | Cc1ccc(C(C)(O)C(F)F)cc1-c1cnc2c(N)nc(-c3ccnc(C)c3F)cn12 (stereo not drawn) [Example 35, 2-(3-(8-Amino-6-(3-fluoro-2-methylpyridin-4-yl)imidazo[1,2-a]pyrazin-3-yl)-4-methylphenyl)-1,1-difluoropropan-2-ol] | 
< 100 | < 100 | 100 to 500 | Cc1ccc(C(C)(O)C(F)F)cc1-c1cnc2c(N)nc(-c3cnn(C)c3C)cn12 (stereo not drawn) [Example 36, 2-(3-(8-Amino-6-(1,5-dimethyl-1H-pyrazol-4-yl)imidazo[1,2-a]pyrazin-3-yl)-4-methylphenyl)-1,1-difluoropropan-2-ol] | 
< 100 | < 100 | < 100 | Cc1ccc(C(C)(O)C(F)F)cc1-c1cnc2c(N)nc(-c3cnn(C)c3)cn12 (stereo not drawn) [Example 37, 2-(3-(8-Amino-6-(1-methyl-1H-pyrazol-4-yl)imidazo[1,2-a]pyrazin-3-yl)-4-methylphenyl)-1,1-difluoropropan-2-ol] | 
< 100 | < 100 | < 100 | Cc1ccc(C(C)(O)C(F)F)cc1-c1cnc2c(N)nc(-c3cn(C)nc3C)cn12 (stereo not drawn) [Example 38, 2-(3-(8-Amino-6-(1,3-dimethyl-1H-pyrazol-4-yl)imidazo[1,2-a]pyrazin-3-yl)-4-methylphenyl)-1,1-difluoropropan-2-ol] | 
< 100 | < 100 | < 100 | Cc1ccc(C(C)(O)C(F)F)cc1-c1cnc2c(N)nc(-c3c(C)n[nH]c3C)cn12 (stereo not drawn) [Example 39, 2-(3-(8-Amino-6-(3,5-dimethyl-1H-pyrazol-4-yl)imidazo[1,2-a]pyrazin-3-yl)-4-methylphenyl)-1,1-difluoropropan-2-ol] | 
< 100 | < 100 | 100 to 500 | Cc1ccc(C(C)(O)C(F)F)cc1-c1cnc2c(N)nc(-c3cn[nH]c3)cn12 (stereo not drawn) [Example 40, 2-(3-(8-Amino-6-(1H-pyrazol-4-yl)imidazo[1,2-a]pyrazin-3-yl)-4-methylphenyl)-1,1-difluoropropan-2-ol] | 
100 to 500 | < 100 | 100 to 500 | Cc1cc(-c2cn3c(-c4cc(C(C)(O)C(F)F)ccc4C)cnc3c(N)n2)n(C)n1 (stereo not drawn) [Example 41, 2-(3-(8-Amino-6-(1,3-dimethyl-1H-pyrazol-5-yl)imidazo[1,2-a]pyrazin-3-yl)-4-methylphenyl)-1,1-difluoropropan-2-ol] | 
100 to 500 | < 100 | 100 to 500 | Cc1ccc(C(C)(O)C(F)F)cc1-c1cnc2c(N)nc(-c3c(C)cnn3C)cn12 (stereo not drawn) [Example 42, 2-(3-(8-Amino-6-(1,4-dimethyl-1H-pyrazol-5-yl)imidazo[1,2-a]pyrazin-3-yl)-4-methylphenyl)-1,1-difluoropropan-2-ol] | 
100 to 500 | < 100 | 500 to 1000 | Cc1ccc(C(C)(O)C(F)F)cc1-c1cnc2c(N)nc(-c3ccn(C)n3)cn12 (stereo not drawn) [Example 43, 2-(3-(8-Amino-6-(1-methyl-1H-pyrazol-3-yl)imidazo[1,2-a]pyrazin-3-yl)-4-methylphenyl)-1,1-difluoropropan-2-ol] | 
100 to 500 | < 100 | < 100 | Cc1ccc(C(C)(O)C(F)F)cc1-c1cnc2c(N)nc(-c3ccc(CO)nc3)cn12 (stereo not drawn) [Example 46, 2-(3-(8-Amino-6-(6-(hydroxymethyl)pyridin-3-yl)imidazo[1,2-a]pyrazin-3-yl)-4-methylphenyl)-1,1-difluoropropan-2-ol trifluoroacetate] | 
100 to 500 | < 100 | 100 to 500 | Cc1cc(-c2cn3c(-c4cc(C(C)(O)C(F)F)ccc4C)cnc3c(N)n2)on1 (stereo not drawn) [Example 48, 2-(3-(8-Amino-6-(3-methylisoxazol-5-yl)imidazo[1,2-a]pyrazin-3-yl)-4-methylphenyl)-1,1-difluoropropan-2-ol trifluoroacetate] | 
100 to 500 | < 100 | 100 to 500 | Cc1ccc(C(C)(O)C(F)F)cc1-c1cnc2c(N)nc(-n3cncn3)cn12 (stereo not drawn) [Example 49, 2-(3-(8-Amino-6-(1H-1,2,4-triazol-1-yl)imidazo[1,2-a]pyrazin-3-yl)-4-methylphenyl)-1,1-difluoropropan-2-ol] | 
100 to 500 | < 100 | 100 to 500 | CCC(O)(c1ccc(C)c(-c2cnc3c(N)nc(-c4ccnn4C)cn23)c1)C(F)F (stereo not drawn) [Example 50, 2-(3-(8-Amino-6-(1-methyl-1H-pyrazol-5-yl)imidazo[1,2-a]pyrazin-3-yl)-4-methylphenyl)-1,1-difluorobutan-2-ol trifluoroacetate] | 
